From patent US20110070211A1 (priority 2009, published 2011)

System: DU-145 cells
Assay type: cell-based, Human

## C=C1[C@@H](C)[C@H]2[C@H](Cc3ccccc3)NC(=O)[C@]23[C@H](OC(C)=O)/C=C/[C@@](C)(O)C(=O)[C@@H](C)C/C=C/[C@H]3[C@@H]1O [Cytochalasin-D]
  Effect on cell migration: did not migrate
  Relative Wound Density at 24 Hours, Mean: 3.3 ± 0.2
  Relative Wound Density at 24 Hours, Percent Relative to Media: 4%
